# Reference: US9084782B2, “Chemical inhibitors of cholesterol biosynthesis and venous angiogenesis” (The Regents of the University of California, priority 2011, dated 2015)
# “Also recorded” adds a separate entry of the source.
# How the values were obtained:
# HUVECs = test: Wound healing assay, HUVECs; assay type: cell-based, human
# Protocol: (§1) HUVECs and HUAECs were purchased from VEC Technologies. Cells were cultured on 0.1% Gelatin-coated dishes in Medium 199 (Mediatech), supplemented with 15% Fetal Bovine Serum (ATCC), 48 μg/mL Endothelial Cell Growth Supplement (BD Biosciences), 64 μg/mL Heparin Sulfate (Sigma-Aldrich), 0.9 mM Sodium Pyruvate (Mediatech), 100 IU/ml Penicillin (Mediatech), and 100 μg/ml Streptomycin (Mediatech).
# (§2) For the wound healing assay, cells were cultured in 24-well plates to confluence before being subjected to a 2-hour pre-treatment with either DMSO, aplexone, Rockout (Calbiochem) or NSC 23766 (TOCRIS Bioscience). After the pre-treatment, the monolayer of endothelial cells was scratched and the closure of the wound was measured after 8 hr. The images of wounds were taken at 0 and 8 hr after scratching and the area of the wound was measured using Image J. The migration distance (the width of the wound) was calculated by dividing the area by the length of the wound. Cells below passage seven were used in this study.
# mCherry-RhoCLVL = test: Localization of chimeric protein mCherry-RhoCLVL (geranylgeranylation); assay type: in vivo, zebrafish; details: 10 μM aplexone, 80% epiboly
# Protocol: mCherry-RhoCLVL was generated by PCR amplification of mCherry from pmCherry-N3 (a generous gift from S. Walsh) using primers containing sequences coding for the C-terminal 20 amino acid residues of human RhoA. mCherry-RasCVLS was amplified from pME-mCherryCAAX (a generous gift from C.-B. Chien). The PCR products were sub-cloned into pcGlobin2 (Ro et al., 2004) and mRNA was synthesized using the mMESSAGE mMACHINE kit (Ambion). Zebrafish embryos were injected with 250 pg of mCherry-RhoCLVL and mCherry-RasCVLS mRNA at 1-cell stage, and raised with or without the presence of 10 μM aplexone at 25° C. and fixed at 80% epiboly. Cellular localizations of the mCherry chimeras were analyzed with confocal microscopy.
# HUAECs = test: Wound healing assay, HUAECs; assay type: cell-based, human
# Protocol: as §1, §2
# primordial germ cells = test: Primordial germ cell migration, in situ hybridization with nanos probe; assay type: in vivo, zebrafish; details: 10 μM aplexone
# Protocol: A,B,C, Overall phenotype of control and aplexone-treated embryos at 30 hpf. A′,B′,C′, Vasculature in trunk. […] D-E, Germ cells in control and aplexone treated embryos at 24 hpf were detected by in situ hybridization using the nanos probe. F, The percentage of embryos with ectopic primordial germ cells in control (n=26), 5 μM (n=13), and 10 μM (n=14) aplexone-treated embryos. […] I, The percentage of embryos with cardia bifida in control (n=16) and 10 μM-(n=17), 20 μM-(n=17) and 30 μM-(n=18) aplexone-treated embryos.
# [1] = tested on: ephrinB2a, ephB4 and flt4; test: In situ hybridization for arterial and venous markers; assay type: in vivo, zebrafish; details: 10 μM from 10 hpf, fixed at 24 hpf
# Protocol: Untreated control embryos (A, C, E and A′, C′, E′) and embryos treated with 10 μM aplexone beginning at 10 hpf (B, D, F and B′, D′, F′) were fixed at 24 hpf. Arterial and venous fates were analyzed by in situ hybridization using ephrinB2a (A,A′,B,B′), ephB4 (C,C′,D,D′) and flt4 (E,E′,F,F′) probes. Arrowhead, dorsal aorta. Embryos were analyzed at higher magnification in the trunk in A′-F′, with regions of interest indicated by black boxes in A-F. Arrow, posterior cardinal vein.
# To understand whether angiogenesis from arterial and venous ECs are under different genetic controls we screened a collection of small molecules for compounds that preferentially suppress angiogenesis from exclusively one cell type. In this screen, we used the primary ISV sprouts as the readout for arterial-derived angiogenesis, and the CVP and secondary ISV sprouts as indicators of venous-derived angiogenesis. We found one synthetic compound, aplexone, which has a lineage-dependent effect on angiogenesis. The spatial and temporal development of primary ISVs in the trunk is indistinguishable between 2-day-old control and aplexone-treated embryos (FIG. 1L-M′). […] Secondary ISVs are also absent in these embryos (FIG. 1L-M′).
# [2] = tested on: Tg(kdrl:GFP) zebrafish embryos; test: Primary ISV formation (arterial-derived angiogenesis) in zebrafish embryos; assay type: in vivo
# Description: (§3) Images of GFP expression in Tg(kdrl:GFP) embryos were acquired using a Zeiss SV-11 epifluorescence microscope. Confocal images were acquired using a Carl Zeiss Laser Scanning Systems LSM510 equipped with 20× air, 20× water or 40× water immersion objectives. For single time point confocal images, embryos were anesthetized with 0.01% tricaine and embedded in 1% agarose. When capturing time-lapse confocal movies, embryos were mounted in 3.5% methylcellulose (Sigma-Aldrich) and imaged for 5 hrs on a heated stage at 28.5° C. The images obtained were analyzed using the Zeiss LSM Image Brower version 4 and Image J.
# A synthetic chemical library containing 168 compounds (Castellano et al., 2007) and 300 chemicals from Biomol International LP, consisting of 72 ion channel inhibitors (Cat No. 2805), 84 kinase/phosphatase inhibitors (Cat No. 2831), 84 orphan ligands (Cat No. 2825), and 60 endocannabinoids (Cat No. 2801) were screened. […]
# To understand whether angiogenesis from arterial and venous ECs are under different genetic controls we screened a collection of small molecules for compounds that preferentially suppress angiogenesis from exclusively one cell type. In this screen, we used the primary ISV sprouts as the readout for arterial-derived angiogenesis, and the CVP and secondary ISV sprouts as indicators of venous-derived angiogenesis. […]
# [3] = tested on: caudal vein endothelial cells; test: Caudal vein endothelial cell migration, time-lapse confocal imaging; assay type: in vivo, zebrafish; details: 10 μM aplexone
# Protocol: A-B, Representative images of the caudal vein of control (A) and 10 μM aplexone-treated embryos (B) at 30 hpf. Images were overlaid with the endothelial cell migration path inferred from time-lapse confocal movies taken from 25 hpf to 30 hpf. The migration of caudal vein endothelial cells was traced using the Manual Tracking feature of ImageJ and the positions of ISV sprouting points were used as references to adjust for the growth of embryos. C, The distance of endothelial cell migration in caudal vein of control and aplexone-treated Tg(kdrl:GFP) embryos. Asterisk indicates p<0.05. (D) The window of application of aplexone. Grey bars represent the developmental stages during which Tg(kdrl:GFP) embryos were exposed to 10 μM aplexone and the caudal vein phenotype was analyzed at 48 hpf. […] A “−” indicates the formation of normal caudal vein plexus.
# as §3, with “When capturing time-lapse confocal movies, embryos were mounted in 3.5% methylcellulose (Sigma-Aldrich) and imaged for 5 hrs on a heated stage at 28.5° C.” left out, “J. […]” for “J.”
compound,measurement,setting,value
CC(=O)C1=CCC(c2ccccc2)N(S(=O)(=O)c2ccc(C)cc2)C1 (centres unmarked) [aplexone],migration of HUVECs,HUVECs; 5 μM aplexone,sufficient to impede the migration of HUVECs
same,migration of HUVECs,"HUVECs; various aplexone concentrations, 8 hr after wound",inhibited
same,subcellular localization of mCherry-rhoCAAX (CLVL) chimeric protein,mCherry-RhoCLVL,no longer localized predominantly to the membrane; also recorded: mis-localized to the nucleus and cytoplasm
same,HUAEC migration,"HUAECs; 5 μM aplexone, 8 hr",unaffected
same,impediment in HUAEC migration,"HUAECs; 10 μM aplexone, p<0.05",10%
same,germ cell migration,primordial germ cells,defect in germ cell migration
same,"arterial (ephrin B2a) and venous (flt4, ephB4) marker expression",[1],could not distinguish aplexone-treated embryos from control embryos
same,development of primary ISVs,[2]; 10 μM aplexone,indistinguishable; also recorded: does not affect the development of primary ISVs
same,development of primary ISVs,[2]; 30 μM aplexone,shorter and never reach the dorsal side of the somites; also recorded: inhibits the growth of primary ISVs
same,maturation of caudal vein EC filopodia into angiogenic sprouts,[3],never matured into angiogenic sprouts
same,average EC migration distance during CVP formation,[3]; between 25 hpf and 30 hpf,35 μm
